Data: US9650384B2, “Substituted pyrimidine compounds and methods of use and manufacture” (Duquesne University of the Holy Spirit, priority 2014, dated 2017)
pIC50: −log10 of the molar value. Where two headings read alike, the source gives them in different places.

Tests used:
[1] = system: CHO subline engineered to express human RFC (PC43-10); test: Growth inhibition assay, CHO subline PC43-10 expressing human RFC; type: cell-based
[2] = system: KB human tumor subline (expressing RFC, FRα, and PCFT); test: Growth inhibition assay, KB human tumor subline; type: cell-based
[3] = system: transporter-null (R2) CHO cells; test: Growth inhibition assay, transporter-null R2 CHO cells; type: cell-based; settings: Cricetulus griseus, Table 1, mean of 3 to 10 experiments
[4] = system: CHO subline engineered to express human PCFT (R2/PCFT4); test: Growth inhibition assay, CHO subline R2/PCFT4 expressing PCFT; type: cell-based; settings: R2/PCFT4 cells
GARFTase = target: T1, GARFTase (Homo sapiens, UniProt P22102); settings: reported in reference 1; cited from earlier work
T1 sequence (P22102 1-1010): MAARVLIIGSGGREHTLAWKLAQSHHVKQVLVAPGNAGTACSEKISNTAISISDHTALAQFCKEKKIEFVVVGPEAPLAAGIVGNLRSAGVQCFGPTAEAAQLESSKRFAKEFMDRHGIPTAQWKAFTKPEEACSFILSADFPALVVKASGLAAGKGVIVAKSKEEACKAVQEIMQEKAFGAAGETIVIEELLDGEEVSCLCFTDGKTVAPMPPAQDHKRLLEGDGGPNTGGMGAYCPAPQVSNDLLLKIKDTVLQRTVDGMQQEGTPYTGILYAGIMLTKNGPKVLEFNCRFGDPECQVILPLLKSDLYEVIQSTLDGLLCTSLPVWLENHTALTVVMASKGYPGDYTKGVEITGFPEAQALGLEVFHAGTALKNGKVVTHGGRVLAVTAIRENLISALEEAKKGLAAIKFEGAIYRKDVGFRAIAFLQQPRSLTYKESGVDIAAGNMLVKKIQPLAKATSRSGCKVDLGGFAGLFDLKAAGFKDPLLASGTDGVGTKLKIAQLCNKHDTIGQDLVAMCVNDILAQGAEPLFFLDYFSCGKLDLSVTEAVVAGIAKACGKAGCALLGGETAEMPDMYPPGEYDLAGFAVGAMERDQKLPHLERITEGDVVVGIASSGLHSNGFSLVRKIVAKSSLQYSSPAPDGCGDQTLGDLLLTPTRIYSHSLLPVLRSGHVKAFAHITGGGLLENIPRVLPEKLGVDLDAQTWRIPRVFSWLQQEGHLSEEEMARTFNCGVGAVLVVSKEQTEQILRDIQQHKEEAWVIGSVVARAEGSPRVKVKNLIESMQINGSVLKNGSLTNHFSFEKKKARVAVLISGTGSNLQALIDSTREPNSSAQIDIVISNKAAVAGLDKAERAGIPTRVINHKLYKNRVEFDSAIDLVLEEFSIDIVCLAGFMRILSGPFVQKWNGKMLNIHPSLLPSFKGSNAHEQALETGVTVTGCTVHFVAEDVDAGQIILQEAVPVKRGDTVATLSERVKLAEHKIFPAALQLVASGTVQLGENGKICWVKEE

[5] = system: CHO subline engineered to express human FRα (RT16); test: Growth inhibition assay, CHO subline RT16 expressing FRα; type: cell-based; settings: read-out: IC50 RT16, FR
AICARFTase = AICARFTase (Homo sapiens, UniProt P31939); settings: reported in reference 1; cited from earlier work
Sequence of AICARFTase (P31939 whole entry): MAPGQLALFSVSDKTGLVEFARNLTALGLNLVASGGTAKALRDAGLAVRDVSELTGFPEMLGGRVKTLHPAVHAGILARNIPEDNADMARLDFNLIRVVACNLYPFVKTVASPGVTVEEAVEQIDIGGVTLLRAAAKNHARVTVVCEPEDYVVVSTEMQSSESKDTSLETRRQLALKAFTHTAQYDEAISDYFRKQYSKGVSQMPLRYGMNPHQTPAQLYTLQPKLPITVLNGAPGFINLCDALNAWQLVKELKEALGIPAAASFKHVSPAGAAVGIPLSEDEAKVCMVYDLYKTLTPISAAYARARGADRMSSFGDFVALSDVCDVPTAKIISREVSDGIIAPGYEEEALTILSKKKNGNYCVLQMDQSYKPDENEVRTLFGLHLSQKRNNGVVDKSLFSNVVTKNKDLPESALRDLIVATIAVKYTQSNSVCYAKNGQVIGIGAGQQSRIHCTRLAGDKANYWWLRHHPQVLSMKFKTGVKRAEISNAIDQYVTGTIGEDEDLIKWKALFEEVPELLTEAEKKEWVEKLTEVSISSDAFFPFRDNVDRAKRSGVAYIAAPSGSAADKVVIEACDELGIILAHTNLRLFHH

[6] = Table 1, growth inhibition by 50% relative to cells without drug, mean of 3 to 10 experiments

pIC50 ([2]; Table 2)	SMILES	pIC50 ([1]; Table 2)	pIC50 [3]	pIC50 ([4]; Table 1, mean of 3 to 10 experiments)	pIC50 ([4]; Table 2)	inhibition of GARFTase (GARFTase)	pIC50 [1, 6]	pIC50 [2, 6]	pIC50 [5, 6]	pIC50 ([5]; Table 2)	inhibition of AICARFTase (AICARFTase)
8.00	Nc1nc2[nH]cc(CCc3ccc(C(=O)N[C@@H](CCC(=O)O)C(=O)O)cc3)c2c(=O)[nH]1 [PMX, Pemetrexed]	7.51	< 6.00	–	–	–	–	–	–	–	–
< 6.00	Nc1nc2[nH]cc(CCCSc3ccc(C(=O)N[C@@H](CCC(=O)O)C(=O)O)cc3)c2c(=O)[nH]1 [Compound 10]	< 6.00	–	–	6.26	–	–	–	–	6.55	–

The next lines start with the compound.

SMILES	pIC50 ([2]; Table 2)	pIC50 ([1]; Table 2)	pIC50 [3]	pIC50 ([4]; Table 1, mean of 3 to 10 experiments)	pIC50 ([4]; Table 2)	inhibition of GARFTase (GARFTase)	pIC50 [1, 6]	pIC50 [2, 6]	pIC50 [5, 6]	pIC50 ([5]; Table 2)	inhibition of AICARFTase (AICARFTase)
Nc1nc2[nH]cc(CCCCc3ccc(C(=O)N[C@@H](CCC(=O)O)C(=O)O)cc3)c2c(=O)[nH]1 [Compound 3]	7.90	7.25	–	6.08	6.08	inhibited	7.25	7.90	8.07	8.07	inhibited
Nc1nc2[nH]cc(CCCOc3ccc(C(=O)N[C@@H](CCC(=O)O)C(=O)O)cc3)c2c(=O)[nH]1 [Compound 9]	7.29	7.27	–	–	6.41	–	–	–	–	7.37	–
Nc1nc2[nH]cc(CCCCc3cccc(C(=O)N[C@@H](CCC(=O)O)C(=O)O)c3)c2c(=O)[nH]1 [Compound 11]	< 6.00	6.22	–	–	< 6.00	–	–	–	–	< 6.00	–
